Measured values taken from patent publication US8329686B2, “Isatin analogues and uses therefor” (Washington University, priority 2006, dated 2012).
Where two headings read alike, the source gives them in different places.

Assays:
caspase-3 = target: T1, caspase-3 (Homo sapiens, UniProt P42574); test: Enzyme inhibition assay, caspase 3 (fluorogenic Ac-DEVD-AMC); assay type: biochemical
T1 construct: purchased Sigma-Aldrich (St. Louis, Mo.)
T1 sequence (P42574 29-175 limits assumed): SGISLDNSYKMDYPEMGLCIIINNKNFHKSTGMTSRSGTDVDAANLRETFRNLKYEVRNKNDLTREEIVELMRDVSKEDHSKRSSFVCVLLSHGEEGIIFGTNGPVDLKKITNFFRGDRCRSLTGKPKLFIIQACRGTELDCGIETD
T1 sequence (P42574 176-277 limits assumed): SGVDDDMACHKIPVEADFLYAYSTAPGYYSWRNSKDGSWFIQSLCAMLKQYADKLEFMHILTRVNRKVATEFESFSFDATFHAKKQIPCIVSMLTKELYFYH
Experimental: (§1) Enzyme Assays. Inhibition of recombinant human caspase-3 and other caspases by the isatin analogues was assessed using a fluorometric assay by measuring the accumulation of a fluorogenic product, 7-amino-4-methylcoumarin (7-AMC).
(§2) Enzyme Inhibition Assays. Recombinant human caspases (3, 6, 7, and 8) and their peptide-specific substrates (Ac-DEVDAMC, Ac-VEID-AMC, Ac-DEVD-AMC, and Ac-IETD-AMC, respectively) were purchased from Sigma-Aldrich (St. Louis, Mo.) with the exception of caspase 1 and its substrate (Ac-YVAD-AMC), which were obtained from BIOMOL Research Laboratories (Plymouth Meeting, Pa.). The enzymatic activity of caspases was determined by measuring the accumulation of the fluorogenic product 7-amino-4-methylcoumarin (AMC). All assays were prepared in 96-well format at a volume of 210 μL per well and consisted of 100 mM Na+ HEPES (pH 7.4), 10% sucrose, 100 mM NaCl, 0.1% CHAPS, 5 mM 2-mercaptoethanol, 2 mM EDTA, 10 μM Ac-YVAD-AMC (caspase 1); 20 mMNa^+ HEPES (pH 7.4), 10% sucrose, 100 mMNaCl, 0.1% CHAPS, 2 mM EDTA, 10 μM Ac-DEVD-AMC (caspase 3); 20 mM Na^+ HEPES (pH 7.4), 10% sucrose, 100 mM NaCl, 0.1% CHAPS, 2 mM EDTA, 10 μM Ac-VEID-AMC (caspase 6); 20 mM Na+ HEPES (pH 7.4), 100 mM NaCl, 10% sucrose, 0.1% CHAPS, 5 mM 2-mercaptoethanol, 2 mM EDTA, 10 μM Ac-DEVD-AMC (caspase 7); 20 mM Na+ HEPES (pH 7.4), 10% sucrose, 100 mM NaCl, 0.1% CHAPS, 2 mM EDTA, 10 μM Ac-IETD-AMC (caspase 8).
(§3) Recombinant caspases were first assayed to determine the optimal concentration for each experiment. Optimal concentrations were based in the linear range of the enzyme activation curves. Peptide inhibitors with known IC50 values were tested together with the compounds as a control for each caspase assay. […] Peptide and nonpeptide inhibitors were dissolved in DMSO, and a 2 serial dilution was performed prior to screening in order to obtain desired concentrations. 10 μL was added to each well containing 100 μL caspase solution and allowed to incubate on ice for 30 min. […] The final concentration of DMSO in all wells was 5% of the total volume. In caspase-1 and caspase-7 assays, 10 mM 2-mercaptoethanol was added to the substrate solution for full activation of the enzymes.
(§4) Compounds were tested in duplicate, and IC50 curves were calculated for all inhibitors assayed. Final IC50s were the average of three independent experiments.

caspase 6 = target: T2, caspase 6 (Homo sapiens, UniProt P55212); test: Enzyme inhibition assay, caspase 6 (fluorogenic Ac-VEID-AMC); assay type: biochemical
T2 construct: purchased Sigma-Aldrich (St. Louis, Mo.)
T2 sequence (P55212 24-179 limits assumed): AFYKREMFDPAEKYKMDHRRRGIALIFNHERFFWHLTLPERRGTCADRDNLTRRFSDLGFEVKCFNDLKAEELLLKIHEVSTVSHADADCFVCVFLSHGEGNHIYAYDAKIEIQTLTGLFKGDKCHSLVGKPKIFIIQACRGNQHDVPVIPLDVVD
T2 sequence (P55212 194-293 limits assumed): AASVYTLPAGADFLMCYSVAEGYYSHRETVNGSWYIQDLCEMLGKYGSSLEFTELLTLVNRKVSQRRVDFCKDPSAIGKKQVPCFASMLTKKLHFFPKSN
Experimental: as §1, §2, §3, §4

caspase 7 = target: T3, caspase 7 (Homo sapiens, UniProt P55210); test: Enzyme inhibition assay, caspase 7 (fluorogenic Ac-DEVD-AMC); assay type: biochemical
T3 construct: purchased Sigma-Aldrich (St. Louis, Mo.)
T3 sequence (P55210 24-198 limits assumed): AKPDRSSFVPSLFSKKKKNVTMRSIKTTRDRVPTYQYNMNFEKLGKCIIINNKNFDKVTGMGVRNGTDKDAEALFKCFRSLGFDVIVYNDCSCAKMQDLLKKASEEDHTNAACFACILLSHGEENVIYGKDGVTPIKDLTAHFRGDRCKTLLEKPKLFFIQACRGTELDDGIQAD
T3 sequence (P55210 207-303 limits assumed): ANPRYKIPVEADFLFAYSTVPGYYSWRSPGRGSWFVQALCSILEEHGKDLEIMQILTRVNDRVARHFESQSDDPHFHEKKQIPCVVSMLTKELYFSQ
Experimental: as §1, §2, §3, §4

caspase 8 = target: T4, caspase 8 (Homo sapiens, UniProt Q14790); test: Enzyme inhibition assay, caspase 8 (fluorogenic Ac-IETD-AMC); assay type: biochemical
T4 construct: purchased Sigma-Aldrich (St. Louis, Mo.)
T4 sequence (Q14790 217-374 limits assumed): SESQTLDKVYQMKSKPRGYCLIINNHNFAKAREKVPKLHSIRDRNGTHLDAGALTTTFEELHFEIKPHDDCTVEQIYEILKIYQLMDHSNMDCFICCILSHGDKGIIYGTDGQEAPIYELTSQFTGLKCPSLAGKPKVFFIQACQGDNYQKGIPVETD
T4 sequence (Q14790 385-479 limits assumed): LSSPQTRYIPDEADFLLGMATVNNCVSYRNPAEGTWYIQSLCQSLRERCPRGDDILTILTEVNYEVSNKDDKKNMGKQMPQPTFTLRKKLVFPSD
Experimental: as §1, §2, §3, §4

caspase 1 = target: T5, caspase 1 (Homo sapiens, UniProt P29466); test: Enzyme inhibition assay, caspase 1 (fluorogenic Ac-YVAD-AMC); assay type: biochemical
T5 construct: purchased BIOMOL Research Laboratories (Plymouth Meeting, Pa.)
T5 sequence (P29466 120-297 limits assumed): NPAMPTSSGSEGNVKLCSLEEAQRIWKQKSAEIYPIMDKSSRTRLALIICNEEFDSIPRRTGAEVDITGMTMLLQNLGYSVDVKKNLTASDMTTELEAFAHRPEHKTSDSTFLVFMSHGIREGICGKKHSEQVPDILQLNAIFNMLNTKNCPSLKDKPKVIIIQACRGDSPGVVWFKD
T5 sequence (P29466 317-404 limits assumed): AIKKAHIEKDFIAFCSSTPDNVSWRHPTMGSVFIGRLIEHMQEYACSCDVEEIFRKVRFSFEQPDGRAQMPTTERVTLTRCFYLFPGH

[1] = Table 2, read-out: IC50 (nM) Caspase 3
[2] = Table 2, read-out: IC50 (nM) Caspase 6
[3] = Table 2, read-out: IC50 (nM) Caspase 7
[4] = Table 2, read-out: IC50 (nM) Caspase 8
[5] = Table 2, read-out: IC50 (nM) Caspase 1
[6] = Table 7, read-out: IC50 (nM) Casp-3
[7] = Table 7, read-out: IC50 (nM) Casp-6
[8] = Table 7, read-out: IC50 (nM) Casp-7
[9] = Table 7, read-out: IC50 (nM) Casp-8
[10] = Table 7, read-out: IC50 (nM) Casp-1
[11] = Table 6, read-out: IC50 (nM) caspase-6
[12] = Table 6, read-out: IC50 (nM) caspase-7
[13] = Table 6, read-out: IC50 (nM) caspase-1

Molecule | IC50 (caspase-3; [1]) [nM] | IC50 (caspase 6; [2]) [nM] | IC50 (caspase 7; [3]) [nM] | IC50 (caspase 8; [4]) [nM] | IC50 (caspase 1; [5]) [nM] | IC50 (caspase-3; [6]) [nM] | IC50 (caspase 6; [7]) [nM] | IC50 (caspase 7; [8]) [nM] | IC50 (caspase 8; [9]) [nM] | IC50 (caspase 1; [10]) [nM] | other results
COc1ccc(CN2C(=O)C(=C(C#N)C#N)c3cc(S(=O)(=O)N4CC[C@H]4COc4cccnc4)ccc32)cc1 [WC-II-87] | 6 ± 0.8 | 450 ± 43 | 50 ± 11.6 | > 50000 | 3600 | – | – | – | – | – | –
N#CC(C#N)=C1C(=O)N(Cc2ccc(OCCF)cc2)c2ccc(S(=O)(=O)N3CCC[C@H]3COc3ccccc3)cc21 [WC-II-92] | 18.3 ± 0.4 | 927 ± 35 | 96.3 ± 20.7 | > 50000 | 10000 | – | – | – | – | – | –
CSc1ccc(CN2C(=O)C(=O)c3cc(S(=O)(=O)N4CCC[C@H]4COc4ccccc4)ccc32)cc1 [Compound 11d, (S)-1-(4-Methylthiobenzyl)-5-(2-phenoxymethyl-pyrrolidine-1-sulfonyl)-1H-indole-2,3-dione] | – | – | – | – | – | – | – | – | – | – | melting point: 175.4 to 176.8 °C
N#CC(C#N)=C1C(=O)N(Cc2ccc(Br)cc2)c2ccc(S(=O)(=O)N3CCCC3COc3ccccc3)cc21 (stereo not drawn) [Compound 27d, 2-[1-(4-Bromo-benzyl)-2-oxo-5-(2-phenoxymethyl-pyrrolidine-1-sulfonyl)-1,2-dihydro-indol-3-yl-idene]-malononitrile] | 20.1 ± 1.3 | 840 ± 125 | 92.2 ± 11.8 | > 50000 | 5700 | 20.1 ± 1.3 | 840 ± 125 | 92.2 ± 11.8 | > 50000 | 5700 ± 850 | IC50 (caspase-3; read-out: IC50 for caspase-3): 20.1 nM; IC50 (caspase 7; read-out: IC50 for caspase-7): 92.2 nM
CSc1ccc(CN2C(=O)C(=O)c3cc(S(=O)(=O)N4CCCC4COc4cccnc4)ccc32)cc1 (stereo not drawn) [Compound 21d, 1-(4-Methylthiobenzyl)-5-(2-(pyridin-3-yl-oxymethyl)-pyrrolidine-1-sulfonyl)-1H-indole-2,3-dione] | – | – | – | – | – | – | – | – | – | – | IC50 (caspase-3; Table 6, read-out: IC50 (nM) caspase-3): 4.4 ± 1.4 nM; IC50 (caspase 6; [11]): > 5000 nM; IC50 (caspase 7; [12]): 23.3 ± 0.7 nM; IC50 (caspase 8; Table 6, read-out: IC50 (nM) caspase-8): > 50000 nM; IC50 (caspase 1; [13]): > 50000 nM
CN1C(=O)C(=C(C#N)C#N)c2cc(S(=O)(=O)N3CCCC3COc3ccccc3)ccc21 (stereo not drawn) [Compound 27a, 2-[1-Methyl-2-oxo-5-(2-phenoxymethyl-pyrrolidine-1-sulfonyl)-1,2-dihydro-indol-3-yl-idene]-malononitrile] | 119 ± 4 | 698 ± 94 | 785 ± 276 | > 50000 | 2820 | 119 ± 4 | 698 ± 94 | 785 ± 276 | > 50000 | 2820 ± 248 | –
N#CC(C#N)=C1C(=O)N(Cc2ccc(O)cc2)c2ccc(S(=O)(=O)N3CCC[C@H]3COc3ccccc3)cc21 [Compound 27c] | 31.8 ± 6.2 | 744 ± 48 | 126 ± 19 | > 50000 | 2300 | 31.8 ± 6.2 | 744 ± 48 | 126 ± 19.3 | > 50000 | 2300 ± 250 | IC50 (caspase-3; read-out: IC50 for caspase-3): 31.8 nM; IC50 (caspase 7; read-out: IC50 for caspase-7): 126 nM
CN1C(=O)C(=O)c2cc(S(=O)(=O)N3CCCC3COc3cccnc3)ccc21 (stereo not drawn) [Compound 21a, 1-Methyl-5-(2-(pyridin-3-yl-oxymethyl)-pyrrolidine-1-sulfonyl)-1H-indole-2,3-dione] | – | – | – | – | – | – | – | – | – | – | IC50 (caspase-3; IC50 (nM) caspase-3, Table 6): 23.3 ± 3.1 nM; IC50 (caspase 6; [11]): > 5000 nM; IC50 (caspase 7; [12]): 94.9 ± 21.6 nM; IC50 (caspase 8): > 50000 nM; IC50 (caspase 1; [13]): > 10000 nM
(S)-1-(4-Methoxybenzyl)-5-(2-phenoxymethyl-pyrrolidine-1-sulfonyl)-1H-indole-2,3-dione [Compound 11b] | – | – | – | – | – | – | – | – | – | – | IC50 (caspase-3; Table 4, read-out: IC50 (nM) caspase-3): 14.5 ± 1.6 nM; IC50 (caspase 6; Table 4, read-out: IC50 (nM) caspase-6): > 5000 nM; IC50 (caspase 7; Table 4, read-out: IC50 (nM) caspase-7): 21.8 ± 3.5 nM; IC50 (caspase 8; Table 4, read-out: IC50 (nM) caspase-8): > 50000 nM; IC50 (caspase 1; Table 4, read-out: IC50 (nM) caspase-1): > 10000 nM
